For 14 compounds, IC50 and Log potency ratio results are on record in ChEMBL document CHEMBL1131492 (J Med Chem, 1998).

pIC50: −log10 of the molar value.

Experiment [1] deals with T1, Sodium-dependent dopamine transporter (Rattus norvegicus, UniProt P23977). The experiment is described as follows: Inhibition [3H]DA uptake in rat striatal synaptosomes. The class given is functional, subcellular, Brain.
Experiment [2] addresses Sodium-dependent dopamine transporter (Rattus norvegicus) (UniProt P23977). The experiment is described as follows: Value is difference between the cocaine binding and DA uptake.
Experiment [3] shares this target. The experiment in a line: Potency ratio for Cocaine receptor (IC50 cocaine /IC50 compound).
For experiment [4] the target is unchanged. The experiment in a line: Dopamine (DA) uptake. The class given is functional.
Experiment [5] shares this target. The experiment is described as follows: Ability to inhibit binding of [3H]cocaine to Cocaine receptor in rat brain. The class given is tissue-based.
Experiment [6] has as its target T1, Sodium-dependent dopamine transporter. The experiment in a line: Inhibition [3H]-cocaine binding to Cocaine receptor in rat striatal membranes. The class given is cell membranes.

T1 sequence (P23977 whole entry): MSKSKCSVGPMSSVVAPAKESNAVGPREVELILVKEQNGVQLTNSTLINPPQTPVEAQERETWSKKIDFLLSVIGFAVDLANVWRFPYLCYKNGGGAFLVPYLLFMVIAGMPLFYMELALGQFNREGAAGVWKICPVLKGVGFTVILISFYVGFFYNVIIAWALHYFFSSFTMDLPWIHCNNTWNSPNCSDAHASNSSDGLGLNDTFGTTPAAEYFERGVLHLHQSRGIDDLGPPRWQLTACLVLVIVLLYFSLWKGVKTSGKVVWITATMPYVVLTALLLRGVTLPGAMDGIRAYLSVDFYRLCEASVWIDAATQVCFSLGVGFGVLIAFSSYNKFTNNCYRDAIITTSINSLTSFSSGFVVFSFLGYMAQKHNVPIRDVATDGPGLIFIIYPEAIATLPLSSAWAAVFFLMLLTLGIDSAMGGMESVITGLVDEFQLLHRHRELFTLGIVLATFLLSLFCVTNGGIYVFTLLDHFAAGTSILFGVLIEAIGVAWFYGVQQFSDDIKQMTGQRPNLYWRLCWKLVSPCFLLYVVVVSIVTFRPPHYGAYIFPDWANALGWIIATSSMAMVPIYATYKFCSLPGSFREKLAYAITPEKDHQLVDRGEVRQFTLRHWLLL
Chain of Sodium-dependent dopamine transporter (Rattus norvegicus) (P23977 whole entry): as above

As a reminder, the pIC50 is the IC50 on a negative log10 scale, so that one unit is a factor of ten. A low value points to a large IC50. `COC(=O)C1C(Cc2ccc3ccccc3c2)CC2CCC1N2C` (centres undefined): in experiment [1], the negative-log IC50 (pIC50) was 5.87.
Take `COC(=O)[C@@H]1C2CC[C@H](C[C@H]1/C=C/c1ccccc1)N2C`: the Log potency ratio worked out at 0.13 in experiment [2], 1.68 in experiment [3], 1.55 in experiment [4] and 0.48 in experiment [5]. Besides, the negative-log IC50 (pIC50) in experiment [1] is 8.23; in experiment [6], 8.68.
On to `C=C(c1ccccc1)C1CC2CCC(C1C(=O)OC)N2C` (centres undefined), for which the Log potency ratio in experiment [2] is -0.03; in experiment [3], 0.15; in experiment [4] it was 0.18; in experiment [5], -0.83. Besides, the negative logarithm of the IC50 (pIC50) in experiment [1] is 6.86; in experiment [6], 7.15.
In turn, `COC(=O)C1C(Cc2ccccc2)CC2CCC1N2C` (centres undefined) had a pIC50 in experiment [1] of 5.99.
As for `COC(=O)C1C(OC(=O)c2cccc3ccccc23)CC2CCC1N2C` (centres undefined), the Log potency ratio was -0.11 in experiment [2], -0.87 in experiment [3], -0.76 in experiment [4] and 0.01 in experiment [5]. The negative logarithm of the IC50 (pIC50) in experiment [1] was 5.92; in experiment [6], 6.13.
On to `COC(=O)C1C(c2ccc(N)cc2)CC2CCC1N2C` (centres undefined), for which the Log potency ratio in experiment [2] was -0.32; in experiment [3], -0.14; in experiment [4], 0.18; in experiment [5], 2.58.
For `COC(=O)[C@H]1[C@@H](c2ccc(F)cc2)C[C@H]2CC[C@H]1N2C` the same measures were -0.35, 0.59, 0.94 and -0.49.
On to `COC(=O)C1C(CCCc2ccccc2)CC2CCC1N2C` (centres undefined), for which the Log potency ratio was 0.58 in experiment [2], -0.53 in experiment [3], -1.11 in experiment [4] and -1.84 in experiment [5]. Also, the pIC50 is 5.57 in experiment [1] and 6.46 in experiment [6].
In the case of `COC(=O)C1C(c2ccc([N+](=O)[O-])cc2)CC2CCC1N2C` (centres undefined), the Log potency ratio in experiment [2] is -0.134; in experiment [3], 0.006; in experiment [5], 1.48.
In the case of `COC(=O)[C@H]1C2CC[C@H](C[C@H]1c1ccc3ccccc3c1)N2C`, the Log potency ratio in experiment [2] was -0.29; in experiment [3], 1.48; in experiment [4], 1.77; in experiment [5], 1.66. Also, the pIC50 was 8.45 in experiment [1] and 8.48 in experiment [6].
For the compound `COC(=O)[C@@H]1C2CC[C@H](C[C@H]1c1ccc(-c3ccccc3)cc1)N2C`, the Log potency ratio in experiment [2] came out at 0.14; in experiment [3] it was 0.99; in experiment [4] it was 0.85; in experiment [5] it was 0.9. The figures for the negative logarithm of the IC50 (pIC50) in experiment [1] and in experiment [6] were 7.53 and 7.99, respectively.
For `COC(=O)[C@@H]1C2CC[C@H](C[C@H]1CCc1ccccc1)N2C`, the Log potency ratio was 0.54 in experiment [2], 1.01 in experiment [3], 0.47 in experiment [4] and -0.77 in experiment [5]. For the same compound, the negative-log IC50 (pIC50) in experiment [1] was 7.15; in experiment [6], 8.00.
For `COC(=O)[C@@H]1C2CC[C@H](C[C@H]1OC(=O)c1ccc3ccccc3c1)N2C`, the Log potency ratio is 0.08 in experiment [2], -0.51 in experiment [3], -0.59 in experiment [4] and 0.07 in experiment [5]. The negative logarithm of the IC50 (pIC50) in experiment [1] is 6.09; in experiment [6], 6.49.
Take `COC(=O)[C@@H]1C2CC[C@H](C[C@@H]1c1ccccc1)N2C`: the Log potency ratio was -0.13 in experiment [2], 0.53 in experiment [3] and 0.66 in experiment [4].
